Measured values from patent US20180325933A1, “FOOD INTAKE, BODY WEIGHT AND GLUCOSE METABOLISM REGULATION BY MODULATION OF P2Y6 RECEPTOR SIGNALING” (priority 2014, published 2018).
No end group written: not given here.

Experiments:
NPY-neurons in the ARH = experiment: cFos immunoreactivity of NPY-neurons in NPY-GFP mice after icv administration; format: in vivo; details: icv 30 μM UDP; 20% following vehicle
Source text: Given that the ventromedial part of the ARH mainly contains AgRP/NPY neurons, the inventors next directly investigated the specific effect of P2Y6/UDP on those neurons. The inventors addressed whether icy application of UDP specifically activates NPY/AgRP-coexpressing neurons in the ARH. The inventors therefore repeated the UDP-induced cFos experiments in mice, which express GFP under control of the neuropeptide (NPY)-promotor (NPY-GFP-mice).
FIG. 4: (A) Confocal images and quantitative comparison of ARH cFos immunoreactive cells in NPY-GFP mice after intracerebroventricular administration of vehicle (saline) or 30 μM UDP (n=3 vs. 4). (B) Recording of an AgRPtdTomato neuron showing the increase in action potential frequency in response to the application of 3 μM UDP. […] (C) Identification of a recorded neuron by antibody staining against tdTomato (red) and a biocytin backfill of the recorded neuron (green). (D) Overall responsiveness to 3 μM UDP of the recorded AgRP neuron population (n=11 in total: 4 non-responsive neurons vs 7 responsive). (E) Quantification of action potential (AP) frequency (n=11). Grey circles mark single recordings responding with a significant increase in AP frequency, open circles are non-responsive neurons. All recordings have been conducted in synaptically isolated neurons. […]

AgRPCre mice = experiment: Food intake with pharmacogenetic (hM4D/CNO) inhibition of AgRP cells; format: in vivo; details: icv 30 μM UDP
Source text: To directly assess, whether the ability of centrally applied UDP to activate feeding depends on AgRP-cell activation, the inventors investigated the effect of centrally administered UDP in mice, which allow for pharmacogenetic inhibition of AgRP cells. To this end, the inventors injected AgRPCre mice bilaterally into the ARH with an AAV, which co-expresses in a Cre-dependent manner the inhibtory DREADD-channel hM4D and mCherry.
FIG. 5: (A) Representative microphotographs of mCherry immunostainng in control and AgRP^Cre mice injected bilaterally in the arcuate nucleus (ARH) with Cre-dependent rAAV-hSyn-DIO-hM4D(Gi)-mCherry (mCherry, red; DAPI counterstaining, blue). Scale bar: 100 μm. V3, third ventricle. (B) Food intake measurement in virus-injected AgRP^Cre mice or control wild type litter mates. Mice received CNO injections (0.3 mg/kgBW) 15 minutes prior to icy administration of 30 μM UDP or vehicle (Saline) (n=6 vs 8 vs 5 vs 5). Data are presented as mean±SEM, **p<0.01, ***p<0.001 as compare to vehicle.

AgRP neurons = experiment: Electrophysiological recordings from AgRP-neurons; format: cell-based, AgRPtdTomato mice
Source text: Next the inventors aimed to further directly support the notion, that the P2Y6 agonist UDP can modulate the activity of AgRP-expressing neurons in the ARH. Therefore, the inventors performed electrophysiological recordings from transgenic mice which express red tomato protein under control of the AgRP promoter through Cre-loxP-mediated recombination in (B6; 129S6-Gt(ROSA)26Sortm9(CAG-tdTomato)Hze/J) mice (AgRPtdTomato) (FIGS. 4B and 4C). […] Collectively, these experiments indicate that orexigenic AgRP/NPY-coexpressing neurons in the ARH not only express the UDP receptor P2Y6 but that they are directly activated following UDP application both in vitro and in vivo.
Having defined that the food intake-promoting activity of UDP is mediated through P2Y6-dependent signaling, the inventors aimed to assess whether also UDP's ability to activate AgRP-neuron firing depends on functional P2Y6 signaling. To this end, the inventors performed electrophysiological recordings from genetically identified AgRP-neurons in AgRPtdTomato mice. […] Thus, not only UDP-induced activation of feeding but also UDP-stimulated activation of AgRP-neurons critically depends on functional P2Y6 signaling.
FIG. 4: (A) Confocal images and quantitative comparison of ARH cFos immunoreactive cells in NPY-GFP mice after intracerebroventricular administration of vehicle (saline) or 30 μM UDP (n=3 vs. 4). (B) Recording of an AgRPtdTomato neuron showing the increase in action potential frequency in response to the application of 3 μM UDP. […] (C) Identification of a recorded neuron by antibody staining against tdTomato (red) and a biocytin backfill of the recorded neuron (green). (D) Overall responsiveness to 3 μM UDP of the recorded AgRP neuron population (n=11 in total: 4 non-responsive neurons vs 7 responsive). (E) Quantification of action potential (AP) frequency (n=11). Grey circles mark single recordings responding with a significant increase in AP frequency, open circles are non-responsive neurons. All recordings have been conducted in synaptically isolated neurons. Scale bars: A, 50 μm; B, 100 μm and C, […] and […] in the magnifications, respectively. V3, third ventricle. Data are presented as mean±SEM, *p<0.05 (A) and as boxplots generated according to the “Tukey method” (mean: “+” median: horizontal line) (E). *p<0.05.
FIG. 6: Food intake measurement after intracerebroventricular (icv) administration of (A) vehicle (0.1% DMSO), 1 μM of the P2Y6-specific antagonist MRS […] or co-icv of 30 μM UDP and 1 μM MRS 2578 (n=10vs11vs14vs12), or (B) vehicle (0.1% DMSO), 1 μM MRS 2578, 2 μg ghrelin or co-icv of 2 μg ghrelin and 1 μM MRS 2578 (n=13vs13vs14vs14). (C) Original traces showing the action potential firing during the application of MRS 2578 and during the application of 3 μM UDP in the presence of MRS 2578. (D) Quantification of action potential frequency (AP) (n=12). Data are presented as mean±SEM, *p<0.05 (A-B) and as boxplots generated according to the “Tukey method” (mean: “+”, median: horizontal line) […]. *p<0.05, **p<0.01, ***p<0.001 as compared to vehicle or control.

[1] = system: wild type mice fed a normal chow diet; experiment: Spontaneous food intake after intracerebroventricular (ICV) administration; format: in vivo
Protocol: To explore whether UDP plays a direct role on the central regulation of feeding behavior, the effect of intracerebroventricular administration (ICV) of UDP on spontaneous food intake in wild type mice fed with a normal chow diet was measured. Therefore, mice were anesthetized using ketamine/dexmedetomidine. Guide cannulas (26 gauges) were stereotaxically inserted into the lateral ventricle (bregma −0.2 mm, midline 1.0 mm, dorsal surface −2.1 mm). Animals were allowed to recover for one week prior to experiments.
Prior to the onset of the dark phase, mice acutely received 2 μL ICV administration of UDP (1 μM, 10 μM and 30 μM; Sigma-Aldrich®), MRS 2578 (1 μM, 10 μM; Sigma-Aldrich®), or control solution (NaCl). Spontaneous food intake was measured 2 and 4 hours after ICV administration from pre-weighed portions of food dispensed from the food rack. […] UDP appears to be a strong orexigenic agent as administration of 30 μM UDP induces a 45% increase of spontaneous food intake.
FIG. 1: (A) Food intake measurement (depicted as food intake to body weight) after intracereborventricular (icv) administration of increasing doses of UDP (1 μM, 10 μM and 30 μM) or vehicle (saline) (n=26vs13vs11vs14). (B) Food intake measurement (depicted as food intake to body weight) after intracereborventricular (icv) administration of P2Y6 antagonist MRS2578 (1 μM and […]) or vehicle (saline) (n=9vs5vs5). Data are presented as mean±SEM. **p<0.01, ***p<0.001.

P2Y6 = experiment: Food intake after icv UDP or ghrelin with or without P2Y6 antagonist; format: in vivo, mice
Source text: To further elucidate the specific contribution of P2Y6-mediated signaling in UDP-dependent activation of food intake, the inventors took a pharmacological approach.
Data are presented as mean±SEM, *p<0.05 (A-B) and as boxplots generated according to the “Tukey method” (mean: “+”, median: horizontal line) (F). *p<0.05, **p<0.01, ***p<0.001 as compared to vehicle or control.

[2] = system: hypothalamic cell line (immortalized AgRP-neurons); experiment: ERK phosphorylation in hypothalamic cell line (immunoblot); format: cell-based; details: 1 μM UDP
Protocol: (§1) Having identified a restricted domain of P2Y6 expression in neurons of the ARH, the inventors next investigated whether intracerebroventricular (icv) application of the P2Y6 agonist UDP modulates activation of ARH neurons. To this end, C57BL/6 N control mice were implanted with icy cannulas in the lateral ventricle. Following icy administration of either vehicle (i.e. saline) or 30 μM UDP, brains were processed for immunochemistry with an antibody, which detects the immediate early gene product cFos. […] Since cFos activation can occur either directly in the respective brain area or indirectly via trans-synaptic activation of cells located in projecting areas of directly activated neurons, the inventors investigated the direct effect of UDP on its P2Y6. […] Therefore, the inventors also used pERK as a direct read-out of UDP action and the inventors assessed pERK immunoreactivity in the arcuate nucleus following icy UDP application. […]
(§2) FIG. 3: Confocal images and quantification comparison of (A) cFos- and (B) pERK-immunoreactive cells in the arcuate nucleus (ARH) of mice after intracerebroventricular administration of vehicle (saline) or 30 μM UDP (ncFos=7vs9; npERK=5vs6). […] (C) Quantification and representative immunoblots of phosphorylated and total ERK in hypothalamic cell lines after incubation with vehicle (saline) or 1 μM UDP (n=11vs12, from 3 independent experiments). […]

[3] = system: pERK-positive cells in the ARH; experiment: pERK immunoreactivity in the arcuate nucleus after icv administration; format: in vivo, mice; details: icv 30 μM UDP
Protocol: as §1, §2

[4] = system: cFos immunoreactive cells in the arcuate nucleus of the hypothalamus; experiment: cFos immunoreactivity in the arcuate nucleus after icv administration; format: in vivo, C57BL/6 N mice; details: icv 30 μM UDP versus vehicle (saline)
Protocol: as §1, §2

[5] = system: P2Y1, P2Y2, P2Y4 or P2Y11 receptors; details: cited from earlier work
[6] = Serum uridine after intraperitoneal uridine; format: in vivo, C57BL/6 N mice; details: 50 mg/kgBW uridine i.p.
Protocol: (§3) To directly address whether elevation of serum uridine concentrations—as observed in obesity—can lead to increased hypothalamic UDP synthesis, the inventors next injected C57BL/6 N control animals intraperitoneally with uridine.
(§4) FIG. 9: Effects of intraperitoneal injection of uridine (50 mg/kgBW) or vehicle (saline) in C57B16/N mice on (A) serum uridine (n=4-5 per group) and on (B) hypothalamic UDP contents (n=5 per group) 60 and 90 minutes post-injection as well on (C) food intake (n=15 per group). Data are presented as mean±SEM, *p<0.05, **p<0.01, ***p<0.001.

[7] = Hypothalamic UDP content after intraperitoneal uridine; format: in vivo, C57BL/6 N mice; details: 50 mg/kgBW uridine i.p., 90 minutes after application
Protocol: as §3, §4

[8] = system: C57BL/6 N control animals; experiment: Food intake after intraperitoneal uridine; format: in vivo, C57BL/6 N mice; details: 50 mg/kgBW uridine i.p., 4 hours after application
Protocol: as §3, §4

Compound: O=c1ccn([C@@H]2O[C@H](COP(=O)(O)OP(=O)(O)O)[C@@H](O)[C@H]2O)c(=O)[nH]1 [UDP, uridine diphosphate]
- proportion of NPY-neurons exhibiting cFos immunoreactivity (NPY-neurons in the ARH): 60%
- UDP's food intake stimulatory effect (AgRPCre mice; AAV-injected AgRPCre mice, CNO-mediated inhibition of AgRP-neurons): completely abolished
- effect of AAV injection and CNO on UDP-induced food intake (AgRPCre mice; Cre-negative control animals, CNO 0.3 mg/kgBW): no effect
- action potential frequency of AgRP neurons (AgRP neurons; 3 μM UDP): increased action potential frequency
- number of responsive neurons in the recorded AgRP neuron population (AgRP neurons; 3 μM UDP, n=11 in total): 7
- proportion of AgRP-neurons sensitive to UDP (AgRP neurons; electrophysiology, 3 μM UDP): 60%
- increase of spontaneous food intake ([1]; ICV 30 μM UDP): 45%
- spontaneous food intake ([1]; ICV 2 μL, 1 μM, 10 μM and 30 μM, food intake measured 2 and 4 hours after ICV): increases food intake in a dose-dependent manner
- increase of food intake (P2Y6; icv UDP alone): ≈ 50%
- ERK-phosphorylation [2]: clearly increased ERK-phosphorylation
- number of pERK-positive cells in the ARH [3]: significantly increased the number of pERK-positive cells
- increase in cFos immunoreactivity in the arcuate nucleus of the hypothalamus [4]: 2.5 fold

Compound: ghrelin: centrally applied ghrelin, used to increase feeding as specificity control (GSSFLSPEHQRVQQRKESKKPPAKLQPR; ends and bridges not checked; UniProt Q9UBU3 24-51, looked up)
- feeding (P2Y6; icv 2 μg ghrelin): increased feeding to comparable extend as observed upon UDP injection

Compound: S=C=Nc1cccc(NC(=S)NCCCCNC(=S)Nc2cccc(N=C=S)c2)c1 [MRS2578, 1,4-Di[3-(3-isothiocyanatophenyl)thioureido]butane]
- selectivity for P2Y6 receptor activity versus activity at P2Y1, P2Y2, P2Y4 or P2Y11 receptors [5]: selectively blocks P2Y6 receptor activity
- effect on UDP's ability to reduce the membrane potential and activate action potential firing of AgRP-neurons (AgRP neurons; MRS 2578-preincubation, 3 μM UDP): abrogated
- action potential frequency of AgRP-neurons, antagonist alone (AgRP neurons; MRS 2578 alone): no influence on action potential frequency
- spontaneous food intake ([1]; ICV 2 μL MRS 2578 (1 μM, 10 μM)): decreases food intake
- effect on ghrelin's ability to increase food intake (P2Y6; co-icv 2 μg ghrelin and 1 μM MRS 2578): no effect
- effect on UDP-induced increase of food intake (P2Y6; co-icv 30 μM UDP and 1 μM MRS 2578): completely abrogated
- food intake, antagonist alone (P2Y6; icv 1 μM MRS 2578): does not modulate food intake by itself

Compound: O=c1ccn([C@@H]2O[C@H](CO)[C@@H](O)[C@H]2O)c(=O)[nH]1 [uridine]
- serum uridine concentrations ([6]; 60 minutes post injection): rapid increase of serum uridine concentrations
- serum uridine concentrations ([6]; 90 minutes after injection): returned to baseline concentrations
- hypothalamic UDP content [7]: elevation of hypothalamic UDP content
- food intake [8]: increased food intake significantly
